Assay results from article PMC12524796, “Discovery of Galloyl–Flavonoid Conjugates as SARS-CoV-2 3CL^pro Inhibitors: Understanding Binding Interactions Through Computational Approaches” (International Journal of Molecular Sciences, 2025).
Read-outs that look alike come from different tables or passages of the source.

Assays:
SARS-CoV-2 3CL^pro [1] = target: T1, SARS-CoV-2 3CL^pro (Severe acute respiratory syndrome coronavirus 2, UniProt P0DTD1); test: biochemical; type: biochemical; conditions: for inhibition at 100 µM: read-out: SARS-CoV-2 3CL^pro Inhibition 100 µM (%)
SARS-CoV-2 3CL^pro [2] = target: T1, SARS-CoV-2 3CL^pro; set-up: method as in PMID 38277124
3CL^pro = test system: 3CL^pro; set-up: method as in PMID 32272481; conditions: read-out: IC50 against 3CL^pro; cited from earlier work
[3] = FRET assay, read-out: SARS-CoV-2 3CL^pro Inhibition IC50
[4] = 100 µM compound; values marked footnote 3; cited from earlier work
[5] = read-out: SARS-CoV-2 3CL^pro Inhibition IC50; values marked footnote 3; cited from earlier work
[6] = values marked footnote 3; read-out: SARS-CoV-2 3CL^pro Inhibition IC50; cited from earlier work

C=CC(=O)Oc1cc(O)c(C(=O)/C=C/c2ccccc2)c(OC)c1 [Compound 15, 4′-O-acryloylcardamonin]
inhibition at 100 µM (SARS-CoV-2 3CL^pro [1]): 66.6 ± 2.05%

COc1cc2c(c(O)c1[N+](=O)[O-])C(=O)C[C@@H](c1ccccc1)O2 [Compound 23, 6-nitropinostrobin]
inhibition at 100 µM (SARS-CoV-2 3CL^pro [1]): 53.5 ± 4.31%

C=CC(=O)Oc1cc(OC)c(C(=O)/C=C/c2ccccc2)c(OC(=O)C=C)c1 [Compound 17, 2′,4′-O-diacryloylcardamonin]
inhibition at 100 µM (SARS-CoV-2 3CL^pro [1]): 76.8 ± 4.85%

O=C(O)c1cc(O)c(O)c(O)c1 [gallic acid, reference compound]
IC50 (SARS-CoV-2 3CL^pro [1]): > 100 µM | inhibition at 100 µM (SARS-CoV-2 3CL^pro [1]): 1.72 ± 12.1%

COc1cc(OC(=O)c2cc(O)c(O)c(O)c2)c2c(c1)O[C@H](c1ccccc1)CC2=O [Compound 31, 5-O-galloylpinostrobin]
inhibition at 100 µM (SARS-CoV-2 3CL^pro [1]; 100 µM compound, FRET assay): > 99% | IC50 (SARS-CoV-2 3CL^pro [1]; [3]): 7.42 µM | increase of 3CL^pro inhibitory activity compared with the parent compound (SARS-CoV-2 3CL^pro [1]; versus parent compound): over 23 fold

O=C1C[C@@H](c2ccccc2)Oc2cc(O)cc(O)c21 [Compound 7, pinocembrin]
SARS-CoV-2 3CL^pro Inhibition 100 µM (%) (SARS-CoV-2 3CL^pro [2]; [4]): 27.18 ± 2.20 ^3% | IC50 (SARS-CoV-2 3CL^pro [2]; [5]): > 200 µM

COc1cc(OC(=O)c2cc(OC(C)=O)c(OC(C)=O)c(OC(C)=O)c2)c2c(c1)O[C@H](c1ccccc1)CC2=O [Compound 30, 5-O-(tri-O-acetylgalloyl)pinostrobin]
inhibitory activity at 100 µM (in words) (SARS-CoV-2 3CL^pro [1]): moderate inhibitory activity | inhibition at 100 µM (SARS-CoV-2 3CL^pro [1]): 67.1 ± 2.93%

COc1cc(OC(=O)c2cc(O)c(O)c(O)c2)cc(O)c1C(=O)/C=C/c1ccccc1 [Compound 38, 4′-O-galloylcardamonin]
inhibition at 100 µM (SARS-CoV-2 3CL^pro [1]; 100 µM compound, FRET assay): > 99% | IC50 (SARS-CoV-2 3CL^pro [1]; [3]): 13.3 µM

C=CC(=O)Oc1c(C)c(OC)c(C(=O)/C=C/c2ccccc2)c(OC(=O)C=C)c1C [Compound 18, 2′,4′-O-diacryloyl-DMC]
inhibition at 100 µM (SARS-CoV-2 3CL^pro [1]): 68 ± 3.77%

COc1cc(OC(=O)c2ccccc2OC(C)=O)c2c(c1)O[C@H](c1ccccc1)CC2=O [Compound 28, 5-O-(O-acetylsalicyloyl)pinostrobin]
inhibition at 100 µM (SARS-CoV-2 3CL^pro [1]): 89.7 ± 5.92%

O=C(Oc1cc(O)c2c(c1)O[C@H](c1ccccc1)CC2=O)c1ccccc1 [Compound 32, 7-O-benzoylpinocembrin]
inhibition at 100 µM (SARS-CoV-2 3CL^pro [1]): 70.8 ± 2.72%

COc1cc(O)c2c(=O)cc(-c3ccccc3)oc2c1 [Compound 10, tectochrysin]
SARS-CoV-2 3CL^pro Inhibition 100 µM (%) (SARS-CoV-2 3CL^pro [2]; [4]): 86.39 ± 0.19 ^3% | IC50 (SARS-CoV-2 3CL^pro [2]; [5]): 24 µM

C=CC(=O)Oc1cc(O)c2c(c1)O[C@H](c1ccccc1)CC2=O [Compound 13, 7-O-acryloylpinocembrin]
inhibition at 100 µM (SARS-CoV-2 3CL^pro [1]): 79.2 ± 1.52%

COc1cc(O)c2c(c1N)O[C@H](c1ccccc1)CC2=O [Compound 25, 8-aminopinostrobin]
inhibition at 100 µM (SARS-CoV-2 3CL^pro [1]; 100 µM compound, FRET assay): 38.2 ± 3.74% | IC50 (SARS-CoV-2 3CL^pro [1]; [3]): > 100 µM

C=CC(=O)Oc1c(C)c(O)c(C(=O)/C=C/c2ccccc2)c(OC)c1C [Compound 16, 4′-O-acryloyl-DMC]
inhibition at 100 µM (SARS-CoV-2 3CL^pro [1]): 52.9 ± 1.17%

O=c1cc(-c2ccccc2)oc2cc(O)cc(O)c12 [Compound 11, chrysin]
SARS-CoV-2 3CL^pro Inhibition 100 µM (%) (SARS-CoV-2 3CL^pro [2]; [4]): 87.73 ± 0.66 ^3% | IC50 (SARS-CoV-2 3CL^pro [2]; [6]): 32.8 µM

COc1cc(OC(=O)c2cc(O)c(O)c(O)c2)c2c(=O)cc(-c3ccccc3)oc2c1 [Compound 42, 5-O-galloyltectochrysin]
inhibition at 100 µM (SARS-CoV-2 3CL^pro [1]; 100 µM compound, FRET assay): > 99% | IC50 (SARS-CoV-2 3CL^pro [1]; [3]): 20.6 µM

C=CC(=O)Oc1cc(OC(=O)C=C)c2c(=O)cc(-c3ccccc3)oc2c1 [Compound 21, 5,7-O-diacryloylchrysin]
inhibition at 100 µM (SARS-CoV-2 3CL^pro [1]; 100 µM compound, FRET assay): 32.3 ± 4.83% | IC50 (SARS-CoV-2 3CL^pro [1]; [3]): > 100 µM

C=CC(=O)Oc1cc(OC(=O)C=C)c2c(c1)O[C@H](c1ccccc1)CC2=O [Compound 14, 5,7-O-diacryloylpinocembrin]
inhibition at 100 µM (SARS-CoV-2 3CL^pro [1]): 76.2 ± 0.97%

C=CC(=O)Oc1cc(O)c2c(=O)cc(-c3ccccc3)oc2c1 [Compound 20, 7-O-acryloylchrysin]
inhibition at 100 µM (SARS-CoV-2 3CL^pro [1]): 84.01 ± 0.82%

COc1cc(OC(=O)c2cc(OC(C)=O)c(OC(C)=O)c(OC(C)=O)c2)cc(O)c1C(=O)/C=C/c1ccccc1 [Compound 37, 4′-O-(tri-O-acetylgalloyl)cardamonin]
inhibitory activity at 100 µM (in words) (SARS-CoV-2 3CL^pro [1]): moderate inhibitory activity | inhibition at 100 µM (SARS-CoV-2 3CL^pro [1]): 87.2 ± 3.25%

O=c1c2ccccc2[se]n1-c1ccccc1 [Ebselen]
IC50 (3CL^pro): 0.67 µM

COc1cc(C(=O)Oc2cc(O)c3c(c2)O[C@H](c2ccccc2)CC3=O)ccc1OC(C)=O [Compound 34, 7-O-(O-acetylvanilloyl)pinocembrin]
inhibition at 100 µM (SARS-CoV-2 3CL^pro [1]): 83.7 ± 3.37%

O=c1cc(-c2ccccc2)oc2cc(O)c(O)c(O)c12 [Compound 1, baicalein, reference compound]
SARS-CoV-2 3CL^pro Inhibition 100 µM (%) (SARS-CoV-2 3CL^pro [2]; [4]): 62.95 ± 3.10 ^3%

COc1c([N+](=O)[O-])c(O)c2c(c1[N+](=O)[O-])O[C@H](c1ccccc1)CC2=O [Compound 24, 6,8-dinitropinostrobin]
IC50 (SARS-CoV-2 3CL^pro [1]): > 100 µM | inhibition at 100 µM (SARS-CoV-2 3CL^pro [1]): 40 ± 3.27%

COc1c(C)c(O)c(C)c(O)c1C(=O)/C=C/c1ccccc1 [Compound 9, dimethylcardamonin]
SARS-CoV-2 3CL^pro Inhibition 100 µM (%) (SARS-CoV-2 3CL^pro [2]; [4]): 84.59 ± 0.84 ^3% | IC50 (SARS-CoV-2 3CL^pro [2]; [6]): 27.5 µM

O=C(Oc1cc(O)c2c(=O)cc(-c3ccccc3)oc2c1)c1cc(O)c(O)c(O)c1 [Compound 44, 7-O-galloylchrysin]
inhibition at 100 µM (SARS-CoV-2 3CL^pro [1]; 100 µM compound, FRET assay): > 99% | IC50 (SARS-CoV-2 3CL^pro [1]; [3]): 9.26 µM

CC(=O)Oc1cc(C(=O)Oc2cc(O)c3c(c2)O[C@H](c2ccccc2)CC3=O)cc(OC(C)=O)c1OC(C)=O [Compound 35, 7-O-(tri-O-acetylgalloyl)pinocembrin]
inhibitory activity at 100 µM (in words) (SARS-CoV-2 3CL^pro [1]): moderate inhibitory activity | inhibition at 100 µM (SARS-CoV-2 3CL^pro [1]): 73 ± 1.66%

COc1cc(O)c2c(c1)O[C@H](c1ccccc1)CC2=O [Compound 6, pinostrobin]
SARS-CoV-2 3CL^pro Inhibition 100 µM (%) (SARS-CoV-2 3CL^pro [2]; [4]): 26.44 ± 2.32 ^3% | IC50 (SARS-CoV-2 3CL^pro [2]; [5]): > 200 µM

COc1cc(OC(=O)c2ccc(OC(C)=O)c(OC)c2)c2c(c1)O[C@H](c1ccccc1)CC2=O [Compound 29, 5-O-(O-acetylvanilloyl)pinostrobin]
inhibition at 100 µM (SARS-CoV-2 3CL^pro [1]): 84.4 ± 3.91%

O=C(Oc1cc(O)c2c(c1)O[C@H](c1ccccc1)CC2=O)c1cc(O)c(O)c(O)c1 [Compound 36, 7-O-galloylpinocembrin]
inhibition at 100 µM (SARS-CoV-2 3CL^pro [1]; 100 µM compound, FRET assay): > 99% | IC50 (SARS-CoV-2 3CL^pro [1]; [3]): 7.53 µM

COc1cc(O)c2c(c1[N+](=O)[O-])O[C@H](c1ccccc1)CC2=O [Compound 22, 8-nitropinostrobin]
inhibition at 100 µM (SARS-CoV-2 3CL^pro [1]): 55 ± 3.96%

COc1cc(O)cc(O)c1C(=O)/C=C/c1ccccc1 [Compound 8, cardamonin]
SARS-CoV-2 3CL^pro Inhibition 100 µM (%) (SARS-CoV-2 3CL^pro [2]; [4]): 85.60 ± 2.44 ^3% | IC50 (SARS-CoV-2 3CL^pro [2]; [5]): 57.4 µM

COc1c(C)c(OC(=O)c2cc(OC(C)=O)c(OC(C)=O)c(OC(C)=O)c2)c(C)c(O)c1C(=O)/C=C/c1ccccc1 [Compound 39, 4′-O-(tri-O-acetylgalloyl)-DMC]
inhibitory activity at 100 µM (in words) (SARS-CoV-2 3CL^pro [1]): moderate inhibitory activity | inhibition at 100 µM (SARS-CoV-2 3CL^pro [1]): 72 ± 4.27%

COc1c(C)c(OC(=O)c2cc(O)c(O)c(O)c2)c(C)c(O)c1C(=O)/C=C/c1ccccc1 [Compound 40, 4′-O-galloyl-DMC]
inhibition at 100 µM (SARS-CoV-2 3CL^pro [1]; 100 µM compound, FRET assay): > 99% | IC50 (SARS-CoV-2 3CL^pro [1]; [3]): 6.85 µM

C=CC(=O)Oc1cc(OC)cc2oc(-c3ccccc3)cc(=O)c12 [Compound 19, 5-O-acryloyltectochrysin]
inhibition at 100 µM (SARS-CoV-2 3CL^pro [1]; 100 µM compound, FRET assay): 37.2 ± 2.09% | IC50 (SARS-CoV-2 3CL^pro [1]; [3]): > 100 µM

COc1cc(OC(=O)c2ccccc2)c2c(c1)O[C@H](c1ccccc1)CC2=O [Compound 27, 5-O-benzoylpinostrobin]
inhibition at 100 µM (SARS-CoV-2 3CL^pro [1]; 100 µM compound, FRET assay): 43.4 ± 3.99% | IC50 (SARS-CoV-2 3CL^pro [1]; [3]): > 100 µM

COc1cc2c(c(O)c1N)C(=O)C[C@@H](c1ccccc1)O2 [Compound 26, 6-aminopinostrobin]
inhibition at 100 µM (SARS-CoV-2 3CL^pro [1]; 100 µM compound, FRET assay): 14.7 ± 5.85% | IC50 (SARS-CoV-2 3CL^pro [1]; [3]): > 100 µM

CC(=O)Oc1cc(C(=O)Oc2cc(O)c3c(=O)cc(-c4ccccc4)oc3c2)cc(OC(C)=O)c1OC(C)=O [Compound 43, 7-O-(tri-O-acetylgalloyl)chrysin]
inhibitory activity at 100 µM (in words) (SARS-CoV-2 3CL^pro [1]): moderate inhibitory activity | inhibition at 100 µM (SARS-CoV-2 3CL^pro [1]): 85.75 ± 0.48%

COc1cc(OC(=O)c2cc(OC(C)=O)c(OC(C)=O)c(OC(C)=O)c2)c2c(=O)cc(-c3ccccc3)oc2c1 [Compound 41, 5-O-(tri-O-acetylgalloyl)tectochrysin]
inhibitory activity at 100 µM (in words) (SARS-CoV-2 3CL^pro [1]): moderate inhibitory activity | inhibition at 100 µM (SARS-CoV-2 3CL^pro [1]): 72.8 ± 2.43%

CC(=O)Oc1ccccc1C(=O)Oc1cc(O)c2c(c1)O[C@H](c1ccccc1)CC2=O [Compound 33, 7-O-(O-acetylsalicyloyl)pinocembrin]
inhibition at 100 µM (SARS-CoV-2 3CL^pro [1]): 81.7 ± 0.89%
